How the values were obtained:
[1] = test system: spontaneously hypertensive male rats (SHR); experiment: Measurement of an antihypertensive effect: oral administration, systolic blood pressure of the caudal artery; format: in vivo, rat; conditions: 50 mg/Kg oral
Experimental: After each of 15 week-old, spontaneously hypertensive male rats (“SHR”) was accustomed to sphygmomanometric operation by preliminarily measuring its blood pressure for 7 successive days using a commercially available noninvasive sphygmomanometer for rats (manufactured by Softlon Co., Ltd.), the evaluation test was started. The rats were all bred under conditions (in a breeding room in a rat region) at a room temperature of 25±1° C., humidity of 55±10% RH and illumination for 12 hours (from 7:00 am to 7:00 pm).
In the test plot (Comparative Example), a solution of ferulic acid (50 mg/kg as a dose) in physiological saline was employed. In Test plot 2, Test plot 3, Test plot 4, Test plot 5 and Test plot 6, a solution of chlorogenic acid (50 mg/kg as a dosage) in physiological saline, oryzanol (50 mg/kg as a dosage), curcumin (50 mg/kg as a dosage), phenylethyl caffeate (50 mg/kg as a dosage) and rosmarinic acid (50 mg/kg as a dosage) were used, respectively. In each test plot, physiological saline was employed as a control. Each of the samples was orally administered.
SHRs were fasted overnight and divided into groups, each consisting of 5 rats. Systolic blood pressures of the caudal artery were measured prior to administration, and several times during 30 minutes to 24 hours after administration
The test results thus obtained were expressed by the mean value (%) and […] (SE) of the changing ratio (%) in systolic blood pressure.
A lowering ratio of the systolic blood pressure measured during 30 minutes to 24 hours each after administration relative to the systolic blood pressure prior to administration is shown in Table 1.

[2] = Blood levels of chlorogenic acid, caffeic acid and ferulic acid after oral chlorogenic acid in SHR; format: in vivo, rat; design: unit not given here; conditions: 200 mg/kg chlorogenic acid oral once
Experimental: To the SHR, 200 mg/kg of chlorogenic acid was orally administered once.
SHRs were fasted overnight and then divided into groups, each consisting of 5 rats.

[3] = Blood levels after 6 weeks of a beverage mixture containing an extract of raw coffee beans, liquid chromatography; format: in vivo; conditions: human, plasma, oral; read-out: blood level 24 hours after administration of chlorogenic acid
Experimental: The blood levels of chlorogenic acid, caffeic acid and ferulic acid were measured using liquid chromatography.

[4] = test system: spontaneously hypertensive male rats (SHR); experiment: Identification of an antihypertensive component: intravenous administration, systolic blood pressure of the carotid artery; format: in vivo, rat; conditions: anesthetized 15 week-old SHR, 5 μg mol/kg in physiological saline, intravenous via femoral vein catheter
Experimental: Its electrocardiograph was recorded by an electrocardiogram. A sample was injected to the femoral vein through a catheter. After the rats were accustomed sufficiently to the sphygmomanometric operation, the evaluation test was started. The rats were all bred under conditions (in a breeding room in a rat region) at a room temperature of 25±1° C., humidity of 55±10% RH and illumination for 12 hours (from 7:00 am to 7:00 pm). In the control plot, physiological saline was employed. […] Through a catheter, the sample was intravenously administered and while administration, systolic blood pressures of the carotid artery were measured with the passage of time.

[5] = Blood level time course of ferulic acid after administration; format: in vivo
[6] = time 0 (prior to administration)

blood level after the administration of chlorogenic acid [2, 6] | blood level after the administration of chlorogenic acid ([2]; time 3) | blood level after the administration of chlorogenic acid ([2]; time 6) | blood level after the administration of chlorogenic acid ([2]; time 9) | blood level after the administration of chlorogenic acid ([2]; time 12) | blood level after the administration of chlorogenic acid ([2]; time 24) | Molecule | changing ratio in systolic blood pressure (mean) [1, 6] [%] | changing ratio in systolic blood pressure (mean) ([1]; time 6 after administration) [%] | changing ratio in systolic blood pressure (mean) ([1]; time 12 after administration) [%] | changing ratio in systolic blood pressure (mean) ([1]; time 24 after administration) [%] | fluctuation in systolic blood pressure of the carotid artery [4] | other results
– | – | – | – | – | – | O=C(/C=C/c1ccc(O)c(O)c1)O[C@H]1[C@H](O)C[C@](O)(C(=O)O)C[C@H]1O [4-chlorogenic acid, 4-caffeoylquinic acid] | 0 | −8.5 | −9.1 | −11.0 | – | –
0 | 0 | 0 | 0 | 0 | 0 | O=C(/C=C/c1ccc(O)c(O)c1)O[C@@H]1C[C@](O)(C(=O)O)C[C@@H](O)[C@H]1O [5-chlorogenic acid, 5-caffeoylquinic acid] | – | – | – | – | – | –
0 | 0.07 | 0.179 | 0.166 | 0.05 | 0 | O=C(O)/C=C/c1ccc(O)c(O)c1 [caffeic acid] | – | – | – | – | Fluctuations in the blood pressure was not recognized | concentration at 24 h [3]: 95.4 ng/mL
– | – | – | – | – | – | COc1cc(/C=C/C(=O)CC(=O)/C=C/c2ccc(O)c(OC)c2)ccc1O [curcumin] | 0 | −15.2 | −3.5 | −5.3 | – | –
0 | 0.074 | 0.154 | 0.174 | 0.145 | 0 | COc1cc(/C=C/C(=O)O)ccc1O [ferulic acid] | 0 | −3.2 | – | – | lowering in the blood pressure was recognized | concentration at 24 h [3]: 104 ng/mL; changing ratio in systolic blood pressure (mean) ([1]; time 0.5 after administration): −9.5%; changing ratio in systolic blood pressure (mean) ([1]; time 1 after administration): −10.3%; changing ratio in systolic blood pressure (mean) ([1]; time 2 after administration): −6.8%; changing ratio in systolic blood pressure (mean) ([1]; time 4 after administration): −7.9%; time after which metabolism and excretion are completed [5]: about 4 hours; time at which the blood level reaches the maximum [5]: about 2 hours
– | – | – | – | – | – | O=C(/C=C/c1ccc(O)c(O)c1)OCCc1ccccc1 [phenylethyl caffeic acid, phenylethyl caffeate] | 0 | −13.7 | −1.3 | −0.7 | – | –
– | – | – | – | – | – | O=C(O)[C@]1(O)C[C@@H](O)[C@@H](O)[C@H](O)C1 [quinic acid] | – | – | – | – | Fluctuations in the blood pressure was not recognized | –
– | – | – | – | – | – | O=C(/C=C/c1ccc(O)c(O)c1)O[C@H](Cc1ccc(O)c(O)c1)C(=O)O [rosemaric acid, rosmarinic acid] | 0 | −6.4 | 0.9 | 2.2 | – | –
– | – | – | – | – | – | oryzanol | 0 | – | – | – | – | changing ratio in systolic blood pressure (mean) ([1]; time 1 after administration): −15.2%; changing ratio in systolic blood pressure (mean) ([1]; time 2 after administration): −12.8%; changing ratio in systolic blood pressure (mean) ([1]; time 4 after administration): −13.8%

— patent US7939563B2, “Remedy for hypertension” (Kao Corporation, priority 2001, dated 2011)
